Source: US11819552B2, “Antibody-drug conjugates targeting uPARAP” (RIGSHOSPITALET, priority 2016, dated 2023)
Where a SMILES comes first, the peptide text is derived from it. [ ]: non-standard residue; d: D form. The star is where a group is joined. Dolaproine = CO[C@@H]([C@@H]1CCCN1)[C@@H](C)C(=O)O; Dil = CC[C@H](C)[C@H](NC)[C@@H](CC(=O)O)OC; X1 = C[C@@H](N*)[C@@H](O)c1ccccc1; NMeV = CN[C@H](C(=O)O)C(C)C

Legend:
KNS42 cells = test: Cell cycle distribution analysis; type: cell-based; settings: 3-day incubation, 50 nM free toxin
Experimental: (§1) Cell cycle analysis was performed using a Nucleocounter NC-3000 system (ChemoMetec Denmark), using the manufacturers standard protocol for analyzing the cell cycle distribution of a population of cells, based on the DNA content of each cell. The percentage of cells in Sub-G1, G1, S, or G2/M-phases of the cell cycle was established from histogram analysis using the NucleoView NC-3000 software.

U937 cells = test: Cell cycle distribution analysis; type: cell-based; settings: 3-day incubation, 50 nM free toxin
Experimental: as §1

HT1080 cells = test: Cell cycle distribution analysis; type: cell-based; settings: 3-day incubation, 50 nM free toxin
Experimental: as §1

THP-1 cells = test: Cell cycle distribution analysis; type: cell-based; settings: 3-day incubation, 50 nM free toxin
Experimental: as §1

uPARAP = target: T1, uPARAP (Homo sapiens, UniProt Q9UBG0); test: Western blotting of MG63 cell lysate; type: binding; set-up: endogenous in cells; host or cells: MG63 human osteosarcoma cells; settings: detergent lysate of uPARAP-positive MG63 human osteosarcoma cells
T1 sequence (Q9UBG0 31-1479): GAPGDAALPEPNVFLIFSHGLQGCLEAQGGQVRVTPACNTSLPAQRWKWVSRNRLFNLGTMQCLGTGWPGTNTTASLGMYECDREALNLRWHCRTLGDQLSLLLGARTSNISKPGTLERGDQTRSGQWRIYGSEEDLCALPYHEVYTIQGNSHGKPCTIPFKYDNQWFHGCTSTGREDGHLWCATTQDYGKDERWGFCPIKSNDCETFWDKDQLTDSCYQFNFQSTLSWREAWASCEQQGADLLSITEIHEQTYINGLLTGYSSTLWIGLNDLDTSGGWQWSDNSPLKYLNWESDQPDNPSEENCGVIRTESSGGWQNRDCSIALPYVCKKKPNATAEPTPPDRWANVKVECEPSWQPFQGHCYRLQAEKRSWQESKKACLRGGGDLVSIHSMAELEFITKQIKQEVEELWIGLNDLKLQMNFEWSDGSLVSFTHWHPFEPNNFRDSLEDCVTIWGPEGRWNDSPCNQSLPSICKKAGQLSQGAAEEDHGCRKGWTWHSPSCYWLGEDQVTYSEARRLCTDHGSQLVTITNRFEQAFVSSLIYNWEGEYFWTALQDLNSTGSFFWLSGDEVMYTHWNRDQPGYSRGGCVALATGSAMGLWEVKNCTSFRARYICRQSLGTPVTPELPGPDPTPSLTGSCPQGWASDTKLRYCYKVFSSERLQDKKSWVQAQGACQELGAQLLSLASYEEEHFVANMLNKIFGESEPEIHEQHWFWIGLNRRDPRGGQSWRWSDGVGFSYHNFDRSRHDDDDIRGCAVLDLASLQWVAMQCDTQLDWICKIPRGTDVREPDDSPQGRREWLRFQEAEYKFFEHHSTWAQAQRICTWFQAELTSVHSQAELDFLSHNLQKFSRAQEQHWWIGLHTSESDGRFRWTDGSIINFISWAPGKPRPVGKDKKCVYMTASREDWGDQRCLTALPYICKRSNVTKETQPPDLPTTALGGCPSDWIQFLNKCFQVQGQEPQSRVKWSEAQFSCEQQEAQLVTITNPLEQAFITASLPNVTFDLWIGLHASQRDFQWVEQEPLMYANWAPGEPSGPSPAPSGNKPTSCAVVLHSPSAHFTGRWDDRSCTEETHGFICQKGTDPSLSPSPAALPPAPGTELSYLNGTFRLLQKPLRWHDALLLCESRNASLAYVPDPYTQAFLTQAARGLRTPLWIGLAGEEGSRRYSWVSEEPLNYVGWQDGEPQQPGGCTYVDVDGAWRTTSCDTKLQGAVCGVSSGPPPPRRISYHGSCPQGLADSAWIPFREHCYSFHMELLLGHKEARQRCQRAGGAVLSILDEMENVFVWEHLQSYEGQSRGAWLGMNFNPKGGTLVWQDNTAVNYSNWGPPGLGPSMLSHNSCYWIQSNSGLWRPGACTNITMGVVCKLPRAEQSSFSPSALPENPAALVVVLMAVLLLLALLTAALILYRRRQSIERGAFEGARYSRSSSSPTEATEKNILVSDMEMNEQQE
Experimental: For Western blotting, a detergent cell lysate prepared from uPARAP-positive MG63 human osteosarcoma cells was analyzed, using identical concentrations of “2h9 cloned” and “2h9 original” as the primary antibodies. […] No reaction is seen in the absence of primary antibody (negative control).

Molecule | Cell cycle distribution (KNS42 cells) | Cell cycle distribution (U937 cells) | Cell cycle distribution (HT1080 cells) | Cell cycle distribution (THP-1 cells) | Reactivity in Western blotting (uPARAP) | Reactivity in Western blotting (uPARAP; listed as recombinant antibody product)
CC[C@H](C)[C@@H]([C@@H](CC(=O)N1CCC[C@H]1[C@H](OC)[C@@H](C)C(=O)N[C@H](C)[C@@H](O)c1ccccc1)OC)N(C)C(=O)[C@@H](NC(=O)[C@@H](NC)C(C)C)C(C)C [MMAE, monomethyl auristatin E, reference compound] (H-[NMeV]V[Dil][Dolaproine]-X1) | shift in cell cycle distribution towards the Sub-G1 and G2/M phases | shift in cell cycle distribution towards the Sub-G1 and G2/M phases | shift in cell cycle distribution towards the Sub-G1 and G2/M phases | shift in cell cycle distribution towards the Sub-G1 and G2/M phases |  | 
2h9 cloned: recombinant mAb 2h9 product produced in CHO cells from SEQ ID NO: 1 and SEQ ID NO: 5 (protein) light: DIQMTQSPASQSASLGESVTITCLASQTIGTWLAWYQQKPGKSPQLLIYAATTLTDGVPSRFSGAGSGTKFSLKISSLQAEDFASYFCQEFFSTPFTFGSGTKLELKRADAAPTVSIFPPSSEQLTSGGASVVCFLNNFYPKDINVKWKIDGGERQNGVLNSWTDQDSKDSTYSMSSTLTLTKDEYERHNSYTCEATHKTSTSPIVKSFNRNEC heavy: QVQLQQPGTELVRPGLSVKLSCKASGYTFTSYWMNWVKQRPGQGLEWIGMIHPSNDEKRINQKFKDKATLTVDKFSSTVYMQVSSPTSEDSAVYYCARGGGDYVGDYALDFWGQGTSVTVSSAKTTPPSVYPLAPGSAAQTNSMVTLGCLVKGYFPEPVTVTWNSGSLSSGVHTFPAVLQSDLYTLSSSVTVPSSTWPSETVTCNVAHPASSTKVDKKIVPRDCGCKPCICTVPEVSSVFIFPPKPKDVLTITLTPKVTCVVVDISKDDPEVQFSWFVDDVEVHTAQTQPREEQFNSTFRSVSELPIMHQDWLNGKEFKCRVNSAAFPAPIEKTISKTKGRPKAPQVYTIPPPKEQMAKDKVSLTCMITDFFPEDITVEWQWNGQPAENYKNTQPIMDTDGSYFIYSKLNVQKSNWEAGNTFTCSVLHEGLHNHHTEKSLSHSPGK |  |  |  |  | react specifically with the uPARAP protein | specifically recognize uPARAP
